These results are taken from PMC8041284, “Tunable Methacrylamides for Covalent Ligand Directed Release Chemistry” (Journal of the American Chemical Society, 2021).

Like-named read-outs stand apart in the source and are kept apart here.

In this test the target is BTK (Homo sapiens, UniProt Q06187). In words: biochemical.
Where [1] appears, read: read-out: BTK inhibition (%), 0.75 uM BTK, […] probe 3l, 15 min preincubation.

BTK, sequence (Q06187 402-655 limits assumed): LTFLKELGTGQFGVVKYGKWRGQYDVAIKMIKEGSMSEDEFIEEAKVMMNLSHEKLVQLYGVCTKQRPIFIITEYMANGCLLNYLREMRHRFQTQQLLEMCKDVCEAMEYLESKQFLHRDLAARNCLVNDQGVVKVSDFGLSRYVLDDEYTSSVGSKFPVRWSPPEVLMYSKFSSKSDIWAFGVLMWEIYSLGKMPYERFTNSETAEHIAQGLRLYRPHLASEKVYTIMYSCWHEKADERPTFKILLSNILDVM

On to `CC[C@]12C=CCN3CC[C@@]4(c5ccc(OC)cc5N(C)[C@H]4[C@@](O)(C(=O)OC)[C@@H]1OC(C)=O)[C@@H]32` [PCM-0215165], for which the inhibition at 10 µM under setting [1] was 6.2%.

`CCCCCCCCCCCCCCCC(=O)O[C@@H]1[C@@H](O)[C@@H](O)[C@@H]([C@H](NC(=O)[C@@H]2C[C@@H](CCC)CN2C)[C@H](C)Cl)O[C@@H]1SC` [PCM-0215167]: the inhibition at 10 µM under setting [1] came out at 73.2%.

As for `COc1ccc([C@@H]2CC(=O)c3c(O)cc(O[C@@H]4O[C@H](CO[C@@H]5O[C@@H](C)[C@H](O)[C@@H](O)[C@H]5O)[C@@H](O)[C@H](O)[C@H]4O)cc3O2)cc1OC` [PCM-0215169], the inhibition at 10 µM under setting [1] was 5.4%.

For `O=C(O)[C@H]1O[C@@H](Oc2cc3oc(-c4ccc(O)cc4)cc(=O)c3c(O)c2O)[C@H](O)[C@@H](O)[C@@H]1O` [PCM-0215170], the inhibition at 10 µM (read-out: BTK inhibition (%)) was determined as 0%.

Take `COC(=O)[C@@H](N)CCCN=C(N)N[N+](=O)[O-]` [PCM-0215172]: the inhibition at 10 µM under setting [1] stood at 19.6%.

For the compound `O=c1cc(N2CCOCC2)oc2c1ccc1ccccc12` [PCM-0215173], the inhibition at 10 µM under setting [1] is -17.9%.

Turning to `NCC[C@H](O)C(=O)N[C@@H]1C[C@H](N)[C@@H](O[C@H]2O[C@H](CN)[C@@H](O)[C@H](O)[C@H]2O)[C@H](O)[C@H]1O[C@H]1O[C@H](CO)[C@@H](O)[C@H](N)[C@H]1O` [PCM-0215174], the inhibition at 10 µM under setting [1] was 9.4%.

For the compound `NC(N)=NCCC[C@H](N)C(=O)NCC(=O)N[C@@H](CC(=O)O)C(=O)O` [PCM-0215176], under setting [1], the inhibition at 10 µM is 9.4%.

For `COc1cc(N2CCC(N(C)C)CC2)ccc1Nc1ncc(Cl)c(Nc2ccccc2P(C)(C)=O)n1` [PCM-0215177], the inhibition at 10 µM under setting [1] worked out at 64.8%.

On to `C[N+](C)(C)NCCC(=O)[O-]` [PCM-0215179], for which, under setting [1], the inhibition at 10 µM is -8.5%.

As to `Cc1cc(/C(O)=C2\C(=O)C(=O)N(CCCN3CCOCC3)C2c2ccncc2)ccc1OCc1ccccc1` (stereo not shown) [PCM-0215180], the inhibition at 10 µM under setting [1] stood at 0%.

On to `Cc1c(N)nc([C@H](CC(N)=O)NC[C@H](N)C(N)=O)nc1C(=O)N[C@H](C(=O)N[C@H](C)[C@@H](O)[C@H](C)C(=O)N[C@H](C(=O)NCCc1nc(-c2nc(C(=O)NCCC[S+](C)C)cs2)cs1)[C@@H](C)O)[C@@H](O[C@@H]1O[C@@H](CO)[C@@H](O)[C@H](O)[C@@H]1O[C@H]1O[C@H](CO)[C@@H](O)[C@H](OC(N)=O)[C@@H]1O)c1cnc[nH]1` [PCM-0215181], for which the inhibition at 10 µM under setting [1] was determined as 7.7%.

Consider `CCCCCCCCCCCCCCCCCCOP(=O)([O-])OC1CC[N+](C)(C)CC1` [PCM-0215183], for which, under setting [1], the inhibition at 10 µM was -46.8%.

Take `CO/N=C(\C(=O)N[C@@H]1C(=O)N2C(C(=O)O)=C(Cn3ccc(=N)n3CCO)CS[C@H]12)c1csc(N)n1` [PCM-0215184]: the inhibition at 10 µM under setting [1] is 9.4%.

For the compound `CCCCC[C@H](O)/C=C/[C@H]1[C@H](O)CC(=O)[C@@H]1C/C=C\CCCC(=O)O` [PCM-0215185], the inhibition at 10 µM under setting [1] was -11.7%.

As to `NCCCC(O)(P(=O)(O)O)P(=O)(O)O` [PCM-0215186], the inhibition at 10 µM under setting [1] amounted to 0.9%.

Regarding `Cc1onc(-c2ccccc2)c1C(=O)N[C@@H]1C(=O)N2[C@@H]1SC(C)(C)[C@@H]2C(=O)O` [PCM-0215187], the inhibition at 10 µM under setting [1] is 21.3%.

As for `COC(=O)[C@@H]1CC2=CC(=O)CC[C@]2(C)[C@@]23O[C@@H]2C[C@@]2(C)[C@@H](CC[C@@]24CCC(=O)O4)[C@H]13` [PCM-0215188], under setting [1], the inhibition at 10 µM is -18.7%.

`C=C1c2cccc(O)c2C(O)=C2C(=O)[C@]3(O)C(O)=C(C(N)=O)C(=O)[C@@H](N(C)C)[C@@H]3[C@@H](O)[C@H]12` [PCM-0215189]: under setting [1], the inhibition at 10 µM came to 17%.

Take `CC(=O)OCC1=C(C(=O)O)N2C(=O)[C@@H](N)[C@H]2SC1` [PCM-0215190]: the inhibition at 10 µM under setting [1] is -8.5%.

On to `N[C@@]1(C(=O)O)CS(=O)(=O)[C@H]2[C@H](C(=O)O)[C@H]21` [PCM-0215191], for which the inhibition at 10 µM under setting [1] was 9.4%.

As for `CN[C@@H]1[C@H](O[C@H]2[C@H](O[C@H]3[C@H](O)[C@@H](O)[C@H](N=C(N)N)[C@@H](O)[C@@H]3N=C(N)N)O[C@@H](C)[C@]2(O)C=O)O[C@@H](CO)[C@H](O)[C@H]1O` [PCM-0215192], the inhibition at 10 µM under setting [1] was -10.2%.
